Measured values as given in patent US9738932B2, “Biomarkers for cardiovascular side-effects induced by cox-2 inhibitory compounds” (FIRALIS SAS, priority 2005, dated 2017).

Tested on: mRNA expression in cardiovascular tissues
Test: Affymetrix GeneChip mRNA expression profiling of monkey tissues (iliac vein, pulmonary vein, aorta, carotid artery, heart) after two-week oral-gavage treatment
Conditions: iliac vein
[1] = group average (Vioxx without A60055)
[2] = group avg, Vioxx without A60055

CS(=O)(=O)c1ccc(C2=C(c3ccccc3)C(=O)OC2)cc1 [Vioxx®, rofecoxib]
1.5 fold: CXCL11 (210163_at) avg fold change vs control [2]
0.9 fold: FCER1G (204232_at) mRNA expression, Avg fold changes vs control [1] | C1QA (218232_at) avg fold change vs control [2] | C1R (212067_s_at) avg fold change vs control [2] | C2 (203052_at) avg fold change vs control [2] | CLU (208791_at) avg fold change vs control [2] | CYBB (203923_s_at) avg fold change vs control [2] | CYP3A5 (214234_s_at) avg fold change vs control [2] | F13A1 (203305_at) avg fold change vs control [2] | HFE (211329_x_at) avg fold change vs control [2]
1.6 fold: BTN3A3 (204820_s_at) avg fold change vs control [2] | CXCL9 (203915_at) avg fold change vs control [2] | GZMB (210164_at) avg fold change vs control [2]
14 fold: BTN3A3 (38241_at) avg fold change vs control [2]
1.7 fold: BTN3A3 (204821_at) avg fold change vs control [2]
3.3 fold: G1P2 (205483_s_at) avg fold change vs control [2]
1.8 fold: CCL8 (214038_at) avg fold change vs control [2]
0.8 fold: ICAM1 (202637_s_at) mRNA expression, Avg fold changes vs control [1] | THY1 (213869_x_at) mRNA expression, Avg fold changes vs control [1] | TMPO (209753_s_at) mRNA expression, Avg fold changes vs control [1] | CD14 (201743_at) avg fold change vs control [2] | CYP11B1 (214630_at) avg fold change vs control [2] | FCGR3A (204006_s_at) avg fold change vs control [2] | HFE (211863_x_at) avg fold change vs control [2]
1.9 fold: ECGF1 (204858_s_at) avg fold change vs control [2]
1.4 fold: PTPN7 (204852_s_at) mRNA expression, Avg fold changes vs control [1] | B2M (201891_s_at) avg fold change vs control [2] | CASP1 (211367_s_at) avg fold change vs control [2] | CCL3 (205114_s_at) avg fold change vs control [2] | CCNB2 (202705_at) avg fold change vs control [2]
0.3 fold: AIF1 (209901_x_at) avg fold change vs control [2]
0.6 fold: FKBP11 (219118_at) mRNA expression, Avg fold changes vs control [1] | AIF1 (213095_x_at) avg fold change vs control [2] | FCGR1A (214511_x_at) avg fold change vs control [2] | HCA127 (220040_x_at) avg fold change vs control [2]
1.2 fold: CD53 (203416_at) mRNA expression, Avg fold changes vs control [1] | CYBB (203922_s_at) mRNA expression, Avg fold changes vs control [1] | GP6 (220336_s_at) mRNA expression, Avg fold changes vs control [1] | HCLS1 (202957_at) mRNA expression, Avg fold changes vs control [1] | HEM1 (209734_at) mRNA expression, Avg fold changes vs control [1] | HLA-A (210514_x_at) mRNA expression, Avg fold changes vs control [1] | HLA-A (213932_x_at) mRNA expression, Avg fold changes vs control [1] | STAT1 (200887_s_at) mRNA expression, Avg fold changes vs control [1] | TNFRSF21 (218856_at) mRNA expression, Avg fold changes vs control [1] | TRB@ (213193_x_at) mRNA expression, Avg fold changes vs control [1] | CCL19 (210072_at) avg fold change vs control [2] | HCK (208018_s_at) avg fold change vs control [2] | HFE (210864_x_at) avg fold change vs control [2]
1.1 fold: BTN2A2 (205298_s_at) mRNA expression, Avg fold changes vs control [1] | CCR1 (205098_at) mRNA expression, Avg fold changes vs control [1] | CD2 (205831_at) mRNA expression, Avg fold changes vs control [1] | CD48 (204118_at) mRNA expression, Avg fold changes vs control [1] | FCGR2A (203561_at) mRNA expression, Avg fold changes vs control [1] | HLA-E (200904_at) mRNA expression, Avg fold changes vs control [1] | IL13RA1 (210904_s_at) mRNA expression, Avg fold changes vs control [1] | PIK3CD (203879_at) mRNA expression, Avg fold changes vs control [1] | SIGIRR (52940_at) mRNA expression, Avg fold changes vs control [1] | STAT1 (AFFX-HUMISGF3A/M97935_3_at) mRNA expression, Avg fold changes vs control [1] | TMSB10 (217733_s_at) mRNA expression, Avg fold changes vs control [1] | C4A (208451_s_at) avg fold change vs control [2] | CASP1 (209970_x_at) avg fold change vs control [2] | CD74 (209619_at) avg fold change vs control [2] | CTSC (201487_at) avg fold change vs control [2] | CXCL10 (204533_at) avg fold change vs control [2] | CYBA (203028_s_at) avg fold change vs control [2]
0.7 fold: EMP3 (203729_at) mRNA expression, Avg fold changes vs control [1] | FKBP11 (219117_s_at) mRNA expression, Avg fold changes vs control [1] | BCL3 (204908_s_at) avg fold change vs control [2] | CCL18 (209924_at) avg fold change vs control [2]
1.3 fold: HLA-F (221978_at) mRNA expression, Avg fold changes vs control [1] | PRKCBP1 (209048_s_at) mRNA expression, Avg fold changes vs control [1] | TRB@ (210915_x_at) mRNA expression, Avg fold changes vs control [1] | C1S (208747_s_at) avg fold change vs control [2] | CD8A (205758_at) avg fold change vs control [2] | CTSK (202450_s_at) avg fold change vs control [2] | ECM1 (209365_s_at) avg fold change vs control [2]
2.0 fold: BTN3A1 (207485_x_at) avg fold change vs control [2] | CD3D (213539_at) avg fold change vs control [2] | F2RL1 (206429_at) avg fold change vs control [2]
0.4 fold: 209813_x_at avg fold change vs control [2]
1.0 fold: BCL6 (215990_s_at) mRNA expression, Avg fold changes vs control [1] | CDC2 (210559_s_at) mRNA expression, Avg fold changes vs control [1] | FCGRT (218831_s_at) mRNA expression, Avg fold changes vs control [1] | HLA-C (211799_x_at) mRNA expression, Avg fold changes vs control [1] | PRKCBP1 (209049_s_at) mRNA expression, Avg fold changes vs control [1] | STAT3 (208992_s_at) mRNA expression, Avg fold changes vs control [1] | TCIRG1 (204158_s_at) mRNA expression, Avg fold changes vs control [1] | C1QB (202953_at) avg fold change vs control [2] | CCL2 (216598_s_at) avg fold change vs control [2] | CMAH (210571_s_at) avg fold change vs control [2] | CTSS (202902_s_at) avg fold change vs control [2] | CX3CR1 (205898_at) avg fold change vs control [2] | CXCL11 (211122_s_at) avg fold change vs control [2] | CXCL12 (209687_at) avg fold change vs control [2] | CYP1B1 (202436_s_at) avg fold change vs control [2] | DUSP6 (208893_s_at) avg fold change vs control [2] | HFE (211332_x_at) avg fold change vs control [2]
0.5 fold: CCL5 (1405_i_at) avg fold change vs control [2]
